The text below walks through data of ChEMBL document CHEMBL5029159, “Reduction of Progranulin-Induced Breast Cancer Stem Cell Propagation by Sortilin-Targeting Cyclotriazadisulfonamide (CADA) Compounds” (J Med Chem, 2021).

Molecules are shown by their SMILES. Activity calls are given as the source filed them. The rule behind the calls is not given here. Bounds are passed on as bounds.

A short description of data set [1]: Therapeutic index, ratio of CC50 for cytotoxicity against human HEK293T cells to ratio of IC50 for Down modulation of sortilin expression in HEK293T cells tranfected with GFP-tagged sortilin incubated for 24 hrs by flow cytometric analysis. It counts as toxicity, cell-based. The settings on record: read-out: TI.
Data set [2] has as its system MCF7. The data set is described as follows: Inhibition of mammosphere-forming capacity in ER-positive human MCF7 cells assessed as inhibition of progranulin-induced mammosphere formation at 1 uM measured after 48 hrs by microscopy. It counts as functional, cell-based.
Data set [3] has as its system MDA-MB-231. The data set is described as follows: Inhibition of mammosphere-forming capacity in ER-negative human MDA-MB-231 cells assessed inhibition of as progranulin-induced mammosphere formation at 1 uM measured after 48 hrs by microscopy. It counts as functional, cell-based.
In data set [4] the test system is MDA-MB-231. The data set is described as follows: Down modulation of sortilin expression in ERalpha-negative human MDA-MB-231 cells incubated for 48 hrs by Western blot analysis. The settings on record: mda-mb-231, 48 h. It is filed as ADME, cell-based.
A short description of data set [5]: Kinetic solubility of compound at pH 7.4 PBS buffer incubated for 30 mins by nephelometry. It counts as physicochemical. The settings on record: for Kinetic_solubility: buffer, pH 7.4, 0.5 h; for solubility kinetic at 0.5 h: PBS buffer, pH 7.4, read-out: Kinetic_solubility.
The subject of data set [6] is MCF7. The data set is described as follows: Down modulation of sortilin expression in ERalpha-positive human MCF7 cells incubated for 48 hrs by Western blot analysis. The settings on record: mcf7, 48 h. It is filed as ADME, cell-based.
Data set [7] has as its system MCF7. The data set is described as follows: Effect on mammosphere-forming capacity in ER-positive human MCF7 cells measured after 48 hrs by microscopy. It is filed as functional, cell-based.
Data set [8] concerns HEK-293T. Put plainly: Down modulation of sortilin expression in HEK293T cells tranfected with GFP-tagged sortilin incubated for 24 hrs by flow cytometric analysis. It counts as functional, cell-based. Particulars: Homo sapiens.
For data set [9], the system named is MDA-MB-231. Put plainly: Effect on mammosphere-forming capacity in ER-negative human MDA-MB-231 cells measured after 48 hrs by microscopy. It counts as functional, cell-based.
Data set [10] deals with HEK-293T. Put plainly: (§1) Cytotoxicity against human HEK293T cells assessed as reduction in cell viability after 72 hrs by alamar blue assay. It is filed as cell-based. Particulars: hek-293t, 72 h.
Data set [11] relates to MCF7. Put plainly: Cytotoxicity against human MCF7 cells assessed as reduction in cell viability after 48 hrs by alamar blue assay. It is filed as functional, cell-based.
In data set [12] the test system is MDA-MB-231. The data set is described as follows: Cytotoxicity against human MDA-MB-231 cells assessed as reduction in cell viability after 48 hrs by alamar blue assay. It counts as functional, cell-based.
Data set [13] concerns MCF7. The data set is described as follows: Inhibition of mammosphere-forming capacity in ER-positive human MCF7 cells assessed as inhibition of progranulin-induced mammosphere formation at 4 uM measured after 48 hrs by microscopy. It is filed as functional, cell-based.
Data set [14] concerns MDA-MB-231. The data set is described as follows: Inhibition of mammosphere-forming capacity in ER-negative human MDA-MB-231 cells assessed as inhibition of progranulin-induced mammosphere formation at 4 uM measured after 48 hrs by microscopy. It is filed as functional, cell-based.
Data set [15] in a line: as §1. It is filed as cell-based, HEK-293T. The settings on record: HEK293T cells.

On to `C=C1CN(S(=O)(=O)c2ccc(OC)cc2)CCCN(CC2CCCCC2)CCCN(S(=O)(=O)c2ccc(N(C)C)cc2)C1.Cl`, for which the selectivity ratio at 24 h in data set [1] was 10. The inhibition result in the data set on MCF7 [2] and in the data set on MDA-MB-231 [3] was “Active” throughout. The results for the Activity result in the data set with MDA-MB-231 [4] and with MCF7 [6] were “Active” and “Dose-Dependent Effect”, respectively. The compound further gave a Kinetic_solubility in data set [5] of 56 µM. Moreover, the result in the data set on MCF7 [7], with MDA-MB-231 [9], in the data set on MCF7 [11] and in the data set with MDA-MB-231 [12] was inactive. Further, in the data set with HEK-293T [8], the IC50 stood at 100 nM. For the same compound, the cytotoxic concentration (CC50) in the data set with HEK-293T [10] was found to be 1 µM.

Consider `C=C1CN(S(=O)(=O)c2ccc(C)cc2)CCCN(CC2CCCCC2)CCCN(S(=O)(=O)c2ccc(OCCO)cc2)C1.Cl`, for which the selectivity ratio at 24 h in data set [1] turned out to be 1.7. In addition, the inhibition result with MDA-MB-231 [3], in the data set with MCF7 [13] and in the data set with MDA-MB-231 [14] was “Active” in each case. For the same compound, the Kinetic_solubility in [5] worked out at 59 µM. Also, the outcome with MCF7 [7] and with MDA-MB-231 [9] was inactive. For the same compound, in the data set on HEK-293T [8], the IC50 worked out at 9000 nM. Moreover, the half-maximal cytotoxic concentration (CC50) in the data set with HEK-293T [10] came to 15 µM.

As to `C=C1CN(S(=O)(=O)c2ccc(C)cc2)CCCN(Cc2ccccc2)CCCN(S(=O)(=O)c2ccc(C)cc2)C1.Cl` [CYCLOTRIAZADISULFONAMIDE HYDROCHLORIDE], in data set [1], the selectivity ratio at 24 h is more than 23. Besides, the solubility kinetic at 0.5 h in data set [5] was 43 µM. Also, the outcome in the data set on MCF7 [7] and with MDA-MB-231 [9] was inactive. The compound further had an IC50 in the data set on HEK-293T [8] of 2200 nM. Moreover, the cytotoxic concentration (CC50) with HEK-293T [10] is more than 50 µM.

Consider `C=C1CN(S(=O)(=O)c2ccc(N(C)C)cc2)CCCN(CC2CCCCC2)CCCN(S(=O)(=O)c2cccc3ccccc23)C1.Cl`, for which the selectivity ratio at 24 h in data set [1] is more than 26. Besides, the inhibition result in the data set on MCF7 [2] and in the data set on MDA-MB-231 [3] was “Active” each time. The Activity result is on record as “Active” in the data set on MDA-MB-231 [4] and “Dose-Dependent Effect” in the data set on MCF7 [6]. The compound further gave a Kinetic_solubility in data set [5] of 60 µM. For the same compound, the result in the data set with MCF7 [7], with MDA-MB-231 [9], with MCF7 [11] and with MDA-MB-231 [12] was inactive. The compound further yielded a half-maximal inhibitory concentration (IC50) in the data set on HEK-293T [8] of 1900 nM. Besides, the CC50 at 72 h in [15] is more than 50 µM.

With `C=C1CN(S(=O)(=O)c2ccc(C)cc2)CCc2cc(-c3ccccc3)cc(n2)CCN(S(=O)(=O)c2ccc(C)cc2)C1.Cl`, the selectivity ratio at 24 h in data set [1] was more than 12.5. Also, the inhibition result in the data set with MDA-MB-231 [3], with MCF7 [13] and in the data set with MDA-MB-231 [14] was “Active” each time. Further, in data set [5], the solubility kinetic at 0.5 h came to 61 µM. Besides, the result in the data set with MCF7 [7] and in the data set with MDA-MB-231 [9] was inactive. 4000 nM corresponded to half-maximal inhibition with HEK-293T [8] (IC50). Also, the CC50 with HEK-293T [10] is more than 50 µM.

Consider `C=C1CN(S(=O)(=O)c2ccc(C)cc2)CCCN(CC2CCCCC2)CCCN(S(=O)(=O)c2ccc(OC)cc2)C1.Cl`, for which the selectivity ratio at 24 h in data set [1] was 2.8. This compound had a Kinetic_solubility in [5] of 57 µM. The outcome in the data set with MCF7 [7] and with MDA-MB-231 [9] was inactive. The same compound came in with an IC50 in the data set on HEK-293T [8] of 500 nM. The CC50 in the data set with HEK-293T [10] turned out to be 1.4 µM.

With `C=C1CN(S(=O)(=O)c2ccc(C)cc2)CCCN(CCc2ccccc2)CCCN(S(=O)(=O)c2ccc(C)cc2)C1.Cl`, the selectivity ratio at 24 h in data set [1] was more than 50. Besides, the inhibition result with MCF7 [2] and in the data set on MDA-MB-231 [3] was “Active” throughout. Also, the Activity result was “Active” in the data set on MDA-MB-231 [4] and “Dose-Dependent Effect” in the data set on MCF7 [6]. The compound also returned a Kinetic_solubility in [5] of 55 µM. Besides, the result with MCF7 [7], in the data set with MDA-MB-231 [9], with MCF7 [11] and in the data set with MDA-MB-231 [12] was inactive. For the same compound, in the data set on HEK-293T [8], the IC50 amounted to 1000 nM. Besides, the half-maximal cytotoxic concentration (CC50) at 72 h in [15] came to 50 µM.
